In ChEMBL document CHEMBL4346687, “Design, synthesis and biological evaluation of novel uracil derivatives bearing 1, 2, 3-triazole moiety as thymidylate synthase (TS) inhibitors and as potential antitumor drugs” (Eur J Med Chem, 2019):

Key:
HepG2 = test: cells; conditions: Homo sapiens, HepG2, 24 h
Description: Antiproliferative activity against human HepG2 cells assessed as reduction in cell viability after 24 hrs by MTT assay

SGC-7901 = test: cells; conditions: Homo sapiens, SGC-7901, 24 h
Description: Antiproliferative activity against human SGC7901 cells assessed as reduction in cell viability after 24 hrs by MTT assay

A549 [1] = test: Antiproliferative activity against human A549 cells assessed as reduction in cell viability at 20 uM after 24 hrs by MTT assay; format: functional; conditions: A549, 24 h
OVCAR-3 = test: cells; conditions: Homo sapiens, OVCAR-3, 24 h
Description: Antiproliferative activity against human OVCAR3 cells assessed as reduction in cell viability after 24 hrs by MTT assay

[2] = Cytotoxicity against human HPAEpic cells assessed as reduction in cell viability after 24 hrs by MTT assay; format: cell-based; conditions: HPAEpic cells
[3] = Cytotoxicity against human GES-1 cells assessed as reduction in cell viability after 24 hrs by MTT assay; format: cell-based, GES1; conditions: GES-1 cells
A549 [4] = test: Antiproliferative activity against human A549 cells assessed as reduction in cell viability at 0.625 uM after 24 hrs by MTT assay; format: functional; conditions: A549, 24 h
[5] = Selectivity index, ratio of CC50 for cytotoxicity against human HPAEpic cells to IC50 for antiproliferative activity against human A549 cells; conditions: HPAEpic cells (CC50) versus A549 cells (IC50)
[6] = Selectivity index, ratio of CC50 for cytotoxicity against human L02 cells to IC50 for antiproliferative activity against human HepG2 cells; conditions: L02 cells (CC50) versus HepG2 cells (IC50)
[7] = Cytotoxicity against human IOSE-80 cells assessed as reduction in cell viability after 24 hrs by MTT assay; format: cell-based; conditions: IOSE-80 cells
A549 [8] = test: Antiproliferative activity against human A549 cells assessed as reduction in cell viability at 1.25 uM after 24 hrs by MTT assay; format: functional; conditions: A549, 24 h
A549 [9] = test: Antiproliferative activity against human A549 cells assessed as reduction in cell viability at 10 uM after 24 hrs by MTT assay; format: functional; conditions: A549, 24 h
[10] = Cytotoxicity against human L02 cells assessed as reduction in cell viability after 24 hrs by MTT assay; format: cell-based; conditions: L02 cells
[11] = Selectivity index, ratio of CC50 for cytotoxicity against human IOSE-80 cells to IC50 for antiproliferative activity against human OVCAR3 cells; conditions: IOSE-80 cells (CC50) versus OVCAR3 cells (IC50)
Thymidylate synthase = Thymidylate synthase (Homo sapiens, UniProt P04818); test: Inhibition of human thymidylate synthase using dUMP as substrate by spectrophotometric method
Chain of Thymidylate synthase (P04818 whole entry): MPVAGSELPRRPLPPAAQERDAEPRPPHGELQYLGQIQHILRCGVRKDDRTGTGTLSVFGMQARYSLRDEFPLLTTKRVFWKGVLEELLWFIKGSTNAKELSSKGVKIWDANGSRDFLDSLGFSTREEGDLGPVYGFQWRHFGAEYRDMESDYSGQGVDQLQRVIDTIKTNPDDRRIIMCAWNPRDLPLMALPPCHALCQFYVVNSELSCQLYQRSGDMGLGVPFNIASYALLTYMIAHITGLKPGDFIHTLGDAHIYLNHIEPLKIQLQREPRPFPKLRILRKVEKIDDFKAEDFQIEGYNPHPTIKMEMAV

A549 [12] = test: Antiproliferative activity against human A549 cells assessed as reduction in cell viability at 5 uM after 24 hrs by MTT assay; format: functional; conditions: A549, 24 h
[13] = Selectivity index, ratio of CC50 for cytotoxicity against human GES-1 cells to IC50 for antiproliferative activity against human SGC7901 cells; conditions: GES-1 cells (CC50) versus SGC7901 cells (IC50)

IC50 (HepG2): 3.73 µM | IC50 (SGC-7901): 6.96 µM | IC50 (OVCAR-3): 4.35 µM | IC50 (Thymidylate synthase): 2.04 µM
Compound: Nc1nc2[nH]cc(CCc3ccc(C(=O)N[C@@H](CCC(=O)O)C(=O)O)cc3)c2c(=O)[nH]1 [PEMETREXED DISODIUM]
inhibition at 20 µM (A549 [1]): 74.7% | CC50 at 24 h [2]: 25.4 µM | CC50 at 24 h [3]: 22.6 µM | inhibition at 0.625 µM (A549 [4]): 27.2% | selectivity ratio [5]: 7.71 | selectivity ratio [6]: 8.23 | CC50 at 24 h [7]: 15.5 µM | inhibition at 1.25 µM (A549 [8]): 39.9% | inhibition at 10 µM (A549 [9]): 58.7% | CC50 at 24 h [10]: 30.7 µM | selectivity ratio [11]: 3.56 | inhibition at 5 µM (A549 [12]): 47.1% | selectivity ratio [13]: 3.25
